Literature values, collected in patent US20090117584A1, “Non-Human mammalian Arthritis Model Featuring Human Antibodies Against Citrul-Linated Proteins” (GENMAB A/S, priority 2005, published 2009).

Key:
human IgG = conditions: SCID mice engrafted with human RA tissue, treated with T-614
anti-CCP antibodies = conditions: RA patients; anti-TNFα therapy in combination with low-dose methotrexate

| Molecule | levels of human IgG in SCID-HuRag mice (human IgG) | anti-CCP titers (anti-CCP antibodies) |
| --- | --- | --- |
| CS(=O)(=O)Nc1cc2occ(NC=O)c(=O)c2cc1Oc1ccccc1 [T-614] | decreases | – |
| infliximab: anti-TNFalpha therapy, named in the cited title | – | decrease |
